Test results from publication PMC6851183, “Computational design and characterization of nanobody-derived peptides that stabilize the active conformation of the β2-adrenergic receptor (β2-AR)” (Scientific Reports, 2019).
pEC50: −log10 of the molar value. Ends that are not written are not given here.

Molecular target: T1, β2-AR/RLuc8 with GFP^2/β-arr2 Arg393Glu, Arg395Glu (Homo sapiens, UniProt P07550)
T1 construct: expressed in transfected cells; host or cells: HEK-293
Assay: BRET^2-based β-arrestin 2 recruitment assay
Type: cell-based

T1 sequence (P07550 whole entry, change not shown): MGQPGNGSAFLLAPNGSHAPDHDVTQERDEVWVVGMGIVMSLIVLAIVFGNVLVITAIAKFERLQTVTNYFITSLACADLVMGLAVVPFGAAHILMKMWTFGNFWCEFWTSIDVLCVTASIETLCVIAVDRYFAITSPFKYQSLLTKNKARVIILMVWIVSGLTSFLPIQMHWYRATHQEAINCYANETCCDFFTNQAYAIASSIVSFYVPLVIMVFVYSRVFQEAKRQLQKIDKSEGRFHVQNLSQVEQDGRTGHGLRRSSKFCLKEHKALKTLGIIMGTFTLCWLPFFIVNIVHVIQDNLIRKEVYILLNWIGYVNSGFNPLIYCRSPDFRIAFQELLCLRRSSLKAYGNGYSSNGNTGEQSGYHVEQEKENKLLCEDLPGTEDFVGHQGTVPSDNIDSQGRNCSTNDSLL

EDTAVYYCNANWDLLSD [P3]
pEC50: ~9.00 | reduction in isoproterenol-induced BRET^2 signal (homogenized or permeabilized cells, 10 µM isoproterenol, P3 10^−12 to 10^−5 M, dose-dependent, maximum): up to 10%
